According to patent publication US8653069B2, “Aralkyl substituted piperidine or piperazine derivatives and their use for treating schizophrenia” (Jiangsu Hengyi Pharmaceutical Co., Ltd., priority 2008, dated 2014):
Where a name gives a salt, the structure may show the parent alone. Read-outs that look alike come from different tables or passages of the source.

Assays:
[1] = in vivo; details: mouse, po
[2] = Oral absorption in studies on animal models; format: in vivo
[3] = system: histidine auxotroph mutant of mouse salmonella TA97, TA98, TA100 and TA102
Text: Bacterial Reverse Mutation Test of II-1
Strains: histidine auxotroph mutant of mouse salmonella TA97, TA98, TA100 and TA102.
Results: the test consists of two parts, i.e., −S9 and +S9. […] No bacteriostatic actions to all the strains are observed at all other doses, and the growth background is good.

[4] = target: T1, rD2R (Rattus norvegicus, UniProt P61169); test: Antagonistic test of D2 receptor (cAMP radioimmunoassay, Forskolin + Dopamine, CHO-rD2 cells); format: cell-based; details: 10 μM Forskolin + 10 μM Dopamine, cAMP generated
T1 construct: expressed in transfected cells; host or cells: CHO cells stably expressing rD2R (CHO-rD2)
T1 sequence (P61169 whole entry): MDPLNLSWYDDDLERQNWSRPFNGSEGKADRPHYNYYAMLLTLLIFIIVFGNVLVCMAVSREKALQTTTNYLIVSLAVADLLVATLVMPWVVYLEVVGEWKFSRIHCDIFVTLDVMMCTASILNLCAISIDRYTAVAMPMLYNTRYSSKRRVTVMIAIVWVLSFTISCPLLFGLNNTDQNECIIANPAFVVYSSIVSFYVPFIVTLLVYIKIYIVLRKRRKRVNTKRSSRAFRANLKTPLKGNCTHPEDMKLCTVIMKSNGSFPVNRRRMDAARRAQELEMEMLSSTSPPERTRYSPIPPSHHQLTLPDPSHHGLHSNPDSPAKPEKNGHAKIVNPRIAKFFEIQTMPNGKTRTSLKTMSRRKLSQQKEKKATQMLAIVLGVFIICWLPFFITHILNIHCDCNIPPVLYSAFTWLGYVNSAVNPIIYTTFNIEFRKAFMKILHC
Description: An Antagonistic Test of D2 Receptor
CHO-rD2 cell is seeded on a 96-well plate at a concentration of 30,000 cells/well, and cultured overnight; each medicine is dissolved in a serum-free F12 culture media containing 100 μM of IBMX, and is added to the above cell for preculturing 30 minutes at 37° C.; thereafter a serum-free F12 culture media containing 10 μM of Forskolin and 10 μM of Dopamine is added and react for 8 minutes, and then 100 μl of pre-cooled 1M HClO4 is added to terminate the reaction. The reaction solution is allowed to stand on ice for 40 minutes, and thereto 20 μl of 2M K2CO3 is added to neutralize the reaction solution. The reaction solution is centrifuged at 3,000 rpm for 15 minutes at 4° C., and a KClO4 deposit is discarded. An amount of supernatant is diluted in 0.05M of acetic acid buffer, and the amount of generated cAMP is measured with radioimmunoassay method. […] See the kit's instructions for detailed steps. Two tubes under each concentration of each compound are measured, and each compound is subjected to two independent tests.
The ordinate of the dose-effect curve represents a reduced percentage of the amount of generated cAMP through antagonist of DA by the compound.

[5] = target: T2, dopamine D2 receptor (Homo sapiens, UniProt P14416); test: Dopamine D2 receptor-binding assay ([3H]Spiperone displacement); details: inhibition of binding of 0.4 nM [3H]Spiperone, CHO-hD2L film product, room temperature 120 minutes; read-out: IC50 (affinity to D2 receptor)
T2 construct: expressed in transfected cells; host or cells: CHO-hD2L cells (membrane preparation)
T2 sequence (P14416 whole entry): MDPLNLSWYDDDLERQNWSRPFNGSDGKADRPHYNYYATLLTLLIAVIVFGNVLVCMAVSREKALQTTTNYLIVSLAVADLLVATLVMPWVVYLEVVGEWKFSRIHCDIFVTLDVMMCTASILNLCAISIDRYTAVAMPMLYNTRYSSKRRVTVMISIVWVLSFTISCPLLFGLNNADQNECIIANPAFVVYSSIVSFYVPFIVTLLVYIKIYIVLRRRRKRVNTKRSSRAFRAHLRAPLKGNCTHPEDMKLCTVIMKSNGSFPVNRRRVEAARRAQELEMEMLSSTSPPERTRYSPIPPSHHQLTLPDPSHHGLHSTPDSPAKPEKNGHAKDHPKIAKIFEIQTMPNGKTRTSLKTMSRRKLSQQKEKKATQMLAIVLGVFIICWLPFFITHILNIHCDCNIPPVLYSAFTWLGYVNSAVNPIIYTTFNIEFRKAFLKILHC
Description: A Dopamine D2 Receptor-Binding Assay
An isotope ligand for D2 receptor: [^3H]Spiperone (77.0 Ci/mmol); (+)Butaclamol; GF/C glass fiber media; a liposoluble scintillation solution; and the D2 receptor protein expressed by sf9 cells.
A binding assay of a film product of CHO-hD2L cells and [^3H]Spiperone is conducted in a 250 μl of 50 mM of Tris-HCl […] buffer (Ph=7.4) solution comprising 100 mM of NaCl, 1 mM of MgC12 and 1% of DMSO. A sample in duplicate containing compounds to be tested, 0.4 nM of [^3H]Spiperone and 12 ug of protein is maintained at room temperature for 120 minutes. The bound radioactive ligand is separated by flash filtration under reduced pressure using Whatman GF/B glass fiber filter pre-treated with 0.3% polyethylenelmine, and radioactivity maintained on the filter is measured using liquid scintillation spectrophotometry. The title compounds in the following examples are tested using the above test, which comprises first of all testing competitive inhibition rate of each compound at a concentration of 10 umol/L to binding of [^3H]Spiperone to D2 receptor through a rough screening; and compounds having inhibition rate higher than 95% are subjected to receptor binding assay under a series of concentrations to determine a half-inhibitory concentration (IC50, the concentration of a compound needed for inhibiting binding of 50% [^3H]Spiperone to D2 receptor). Two tubes under each concentration are measured, and each compound is subjected to two independent tests.

[6] = system: schizophrenia behaviors in mice induced by apomorphine; test: In vivo anti-schizophrenia activity: apomorphine-induced stereotyped behavior in mice; details: female KM mice, oral gavage 30 minutes before apomorphine 10 mg/kg i.p.; II-1 20 mg/kg, aripiprazole 5 mg/kg, risperidone 0.25 mg/kg
Description: A Test of In Vivo Anti-Schizophrenia Activity of Compound II-1
Apomorphine: apomorphine is dissolved in 0.1% ascorbic acid to form a solution having a dosage of 10 mg/kg.
Aripiprazole is dissolved in physiological saline to form a solution having a dosage of 5 mg/kg, and subjected to ultrasonication for dissolving.
Risperidone is dissolved in physiological saline to form a solution having a dosage of 0.25 mg/kg.
Compound II-1 is formulated to 20 mg/kg, and is formulated in situ for use.
Female KM mice, 18-22 g, are randomly divided into a solvent control group, a model control group, a positive control group, and various treatment groups of the tested medicines. Groups for behavior observation test contain 5 mice each group, and groups for activity observation test contain 4 mice each group.
(1) Administration in mice: each group of mice is administrated with 0.1 ml/10 g of the various tested medicines by oral gavage. […]
The stereotyped behavior numbers of the mice in various groups at six time points are statistically analyzed to calculate an average number of each mouse, and the result is denoted by mean±SD.
The test result of stereotyped behavior is statistically analyzed using a LSD method; and observation result of the numbers of activities of the mice is statistically analyzed with repeated-measures analysis of variance and Q-test.

SMILES	LD50 [1] [mg/kg]	oral absorption [2]	Ames test ([3]; TA97, TA98, TA100, TA102, with or without S9, all tested doses)	dose showing bacteriostatic action ([3]; TA97, test system containing S9) [μg per dish]	dose showing bacteriostatic action ([3]; TA98, test system without S9) [μg per dish]	IC50 [4] [µM]	IC50 [5] [nM]	number of stereotyped activities of mice compared with the model group [6]
O=C1CCc2ccc(OCCCCN3CCC(c4noc5cc(F)ccc45)CC3)cc2N1 [II-1, 7-[4-(4-(6-fluoro-benzisoxazolyl)-1-piperidinyl)-n-butoxy]-3,4-dihydro-2(1H)-quinolinone hydrochloride]	> 2000	good	negative	5000	5000	3.38	5.66	–
O=C1CCc2ccc(OCCCCN3CCN(c4cccc(Cl)c4Cl)CC3)cc2N1 [aripiprazole]	1400	–	–	–	–	–	–	reduced significantly
Cc1nc2n(c(=O)c1CCN1CCC(c3noc4cc(F)ccc34)CC1)CCCC2 [risperidone]	83.2	–	–	–	–	–	–	reduced significantly
